Source: US5191079A, “Quinolinecarboxylic acid derivatives” (priority 1990, dated 1993)
Values after ≈ are worked out from the molar mass of the structure shown. Structures can show the parent of a compound that is named as a salt. Where two headings read alike, the source gives them in different places.

What was measured:
[1] = system: Staphylococcus epidermidis IAM 1296; experiment: MIC, Experiment 1; format: cell-based; settings: IAM1296, S. epidermidis IAM 1296, Gram +, read-out: Min. inhib. concentr. (MIC)
Procedure: The compounds of the present invention ([…] and Q) were each dissolved in dimethylsulfoxide to prepare a solution of 5000 μg/ml in concentration. The compounds of the present invention (I, J and K) and the known compound (Y) were each dissolved in sterilized distilled water to prepare a solution of 5000 μg/ml in concentration. […] The test was carried out by a method as appointed by Japan Society of Chemotherapy [cf. Chemotherapy, 29, 76-79 (1981), TOKYO]. As to Streptococcus pneumoniae and Streptococcus pyogenes, Brain heart infusion broth (manufactured by DIFCO) was used as the medium for the preculture thereof, and a heart infusion agar medium containing 5% defibrinated horse blood (manufactured by Nissui Seiyaku K. K., Japan) was used as the medium for the measurement of minimum inhibitory concentration (MIC). As to other microorganisms, a sensitivity test broth (manufactured by Nissui Seiyaku K. K.) was used as the medium for the preculture thereof, and a sensitivity test agar medium (manufactured by Nissui Seiyaku K. K.) was used as the medium for the measurement of MIC.

[2] = system: clinically isolated Enterococcus faecalis; experiment: In vitro antibacterial activity against clinical isolates, Experiment 2; format: cell-based
Outline: (§1)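 Isolates obtained from Nov. 1988 to Jun. 1989 were first precultured in sensitivity test broth. Their minimum inhibitory concentrations were then measured on sensitivity test agar against compounds made up as 1000 μg/ml stock solutions in sterilized water.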

[3] = system: clinically isolated Enterococcus faecium; experiment: as above; format: cell-based
Outline: as §1

[4] = system: clinically isolated Staphylococcus aureus; experiment: as above; format: cell-based
Outline: as §1

[5] = system: Staphylococcus aureus IID 803; experiment: Effect on treatment of general infectious disease (systemic infection in mice), Experiment 3; format: in vivo, Staphylococcus aureus; ddY male mice; settings: for ED50: Staphylococcus aureus, IID803, 168 h, oral, 1 h after i.p. infection, mice, survival after one week, average of several tests, read-out: 50% effective dose (ED50)
Procedure: Staphylococcus aureus IID 803
The test microorganism was subjected to standing culture in Brain heart infusion broth (manufactured by DIFCO) at 37° C. for 16 to 18 hours. The culture was then diluted with PBS (Dulbecco's phosphate buffered saline) to adjust the concentration of bacteria to 4×10^7 -8×10^7 CFU/ml. The mixture was mixed with an equivalent amount of 10% (w/v) Mucin (BACTO MUCIN BACTERIOLOGICAL, manufactured by Difco Co.) to prepare a bacterial suspension. The thus prepared bacterial suspension (0.5 ml each) was intraperitoneally inoculated to ddY male mice (5 weeks age, weighing 24-27 g, 5 mice in each group), to infect the animals, by which systemic infectious model was prepared.
The mice were daily observed for one week, and from the survival number of mice after one week, the 50% effective dose (ED50) was calculated by Weil method. This test was repeated several times and the average of ED50 was calculated.

[6] = 25 clinical strains E. faecalis
[7] = 25 clinical strains E. faecalis, 90% of strains, read-out: MIC90
[8] = 25 clinical strains E. faecium, 90% of strains, read-out: MIC90
[9] = 25 clinical strains S. aureus incl. 16 methicillin resistant
[10] = 25 clinical strains S. aureus incl. 16 methicillin resistant, 50% of strains, read-out: MIC50
[11] = 25 clinical strains S. aureus incl. 16 methicillin resistant, 90% of strains, read-out: MIC90
[12] = 25 clinical strains E. faecalis, 50% of strains, read-out: MIC50

Compound	MIC [1]	MIC50 [2]	MIC [2, 6]	MIC90 [2, 7]	MIC50 [3]	MIC ([3]; 25 clinical strains E. faecium)	MIC90 [3, 8]	MIC90 [4]	MIC [4, 9]	MIC50 [4, 10]	MIC90 [2]	MIC90 [4, 11]	ED50 [5]	MIC50 [2, 12]	MIC90 [3]	MIC50 [4]	protective effects against infection ([5]; Experiment 3, in words)
CN1Cc2csc3c(C(=O)O)c(=O)c4cc(F)c(N5CCN(C)C(CO)C5)c1c4n23 (stereo not shown) [Compound (I), 9,1-(Methylimino)methano-7-fluoro-8-(3-hydroxymethyl-4-methyl-1-piperazinyl)-5-oxo-5H-thiazolo-[3,2-a]quinoline-4-carboxylic acid hydrochloride]	0.2 µg/mL	0.39 µg/mL	0.2 to 12.5 µg/mL	12.5 µg/mL	3.13 µg/mL	0.2 to 25 µg/mL	12.5 µg/mL	6.25 µg/mL	0.1 to 12.5 µg/mL	0.2 µg/mL	–	–	–	–	–	–	–
CN1CCN(c2c(F)cc3c(=O)c(C(=O)O)c4scc5n4c3c2OC5)CC1 [Compound (Y), 9,1-Epoxymethano-7-fluoro-8-(4-methyl-1-piperazinyl)-5-oxo-5H-thiazolo[3,2-a]quinoline-4-carboxylic acid hydrochloride, reference compound]	0.39 µg/mL	0.39 µg/mL	0.2 to 6.25 µg/mL	–	3.13 µg/mL	0.39 to 12.5 µg/mL	6.52 µg/mL	–	0.05 to 12.5 µg/mL	0.2 µg/mL	6.25 µg/mL	12.5 µg/mL	10.8 mg/kg	–	–	–	–
COC[C@@H]1CN(c2c(F)cc3c(=O)c(C(=O)O)c4scc5n4c3c2N(C)C5)CCO1 [Compound (O), 9,1-(Methylimino)methano-7-fluoro-8-[(2S)-2-methoxymethylmorpholino)-5-oxo-5H-thiazolo[3,2-a]quinoline-4-carboxylic acid]	0.05 µg/mL (≈ 0.115 µM)	–	0.05 to 3.13 µg/mL (≈ 0.115 to 7.22 µM)	3.13 µg/mL (≈ 7.22 µM)	3.13 µg/mL (≈ 7.22 µM)	0.1 to 12.5 µg/mL (≈ 0.231 to 28.8 µM)	–	0.78 µg/mL (≈ 1.8 µM)	0.006 to 0.78 µg/mL (≈ 0.0138 to 1.8 µM)	0.013 µg/mL (≈ 0.03 µM)	–	–	–	0.2 µg/mL (≈ 0.461 µM)	6.25 µg/mL (≈ 14.4 µM)	–	–
CN1Cc2csc3c(C(=O)O)c(=O)c4cc(F)c(N5CCN6CCOC[C@H]6C5)c1c4n23 [Compound (F), 9,1-(Methylimino)methano-7-fluoro-8-[(6R)-1,8-diaza-4-oxabicyclo[4.4.0]deca-8-yl]-5-oxo-5H-thiazolo[3,2-a]quinoline-4-carboxylic acid]	0.05 µg/mL (≈ 0.112 µM)	–	0.05 to 6.25 µg/mL (≈ 0.112 to 14.1 µM)	–	1.56 µg/mL (≈ 3.51 µM)	0.2 to 6.25 µg/mL (≈ 0.45 to 14.1 µM)	–	0.78 µg/mL (≈ 1.75 µM)	0.013 to 0.78 µg/mL (≈ 0.0292 to 1.75 µM)	–	6.25 µg/mL (≈ 14.1 µM)	–	2.3 mg/kg	0.2 µg/mL (≈ 0.45 µM)	6.25 µg/mL (≈ 14.1 µM)	0.025 µg/mL (≈ 0.0562 µM)	excellent protective effects against infection
CN1Cc2csc3c(C(=O)O)c(=O)c4cc(F)c(N5CCN(C)C(CF)C5)c1c4n23 (stereo not shown) [Compound (K), 9,1-(methylimino)methano-7-fluoro-8-(3-fluoromethyl-4-methyl-1-piperazinyl)-5-oxo-5H-thiazolo[3,2-a]quinoline-4-carboxylic acid hydrochloride]	0.1 µg/mL	0.39 µg/mL	0.2 to 6.25 µg/mL	–	1.56 µg/mL	0.2 to 12.5 µg/mL	12.5 µg/mL	–	0.025 to 1.56 µg/mL	0.05 µg/mL	6.25 µg/mL	1.56 µg/mL	–	–	–	–	–
CCOCC1CN(c2c(F)cc3c(=O)c(C(=O)O)c4scc5n4c3c2N(C)C5)CCO1 (stereo not shown) [Compound (Q), 9,1-(Methylimino)methano-7-fluoro-8-(2-ethoxymethylmorpholino)-5-oxo-5H-thiazolo[3,2-a]quinoline-4-carboxylic acid]	0.1 µg/mL (≈ 0.223 µM)	0.39 µg/mL (≈ 0.872 µM)	0.05 to 6.25 µg/mL (≈ 0.112 to 14 µM)	–	3.13 µg/mL (≈ 6.99 µM)	0.2 to 25 µg/mL (≈ 0.447 to 55.9 µM)	12.5 µg/mL (≈ 27.9 µM)	0.78 µg/mL (≈ 1.74 µM)	0.006 to 0.78 µg/mL (≈ 0.0134 to 1.74 µM)	0.013 µg/mL (≈ 0.0291 µM)	6.25 µg/mL (≈ 14 µM)	–	–	–	–	–	–
CN1Cc2csc3c(C(=O)O)c(=O)c4cc(F)c(N5CCO[C@H](CO)C5)c1c4n23 [Compound (M), 9,1-(Methylimino)methano-7-fluoro-8-[ (2S)-2-hydroxymethylmorpholino]-5-oxo-5H-thiazolo[3,2-a]quinoline-4-carboxylic acid]	0.05 µg/mL (≈ 0.119 µM)	–	0.05 to 3.13 µg/mL (≈ 0.119 to 7.46 µM)	3.13 µg/mL (≈ 7.46 µM)	1.56 µg/mL (≈ 3.72 µM)	0.1 to 25 µg/mL (≈ 0.238 to 59.6 µM)	3.13 µg/mL (≈ 7.46 µM)	0.78 µg/mL (≈ 1.86 µM)	0.006 to 0.78 µg/mL (≈ 0.0143 to 1.86 µM)	0.013 µg/mL (≈ 0.031 µM)	–	–	–	0.2 µg/mL (≈ 0.477 µM)	–	–	–
